In patent US20070232563A1, “Method for Enhancing Biological Activity and/or Expanding Suitable Region for Biological Activity of Living Body Contacting with Aqueous Environment” (Kabushiki Kaisha Hayashibara Seibutsu Kagaku Kenky, priority 2004, published 2007):

What was measured:
Assay type in all cases: in vivo
[1] = tested on: colbicula (Corbicula leana); test: Biological activity of corbicula (aqueduct extension score) in aqueous mineral solutions
unpolished rice = test: Germination of unpolished rice in aqueous mineral solution
Method: Suitable mineral range of aqueous mineral solutions containing saccharides was examined by using unpolished rice as an agricultural product. In detail, a commercialized purified salt as a mineral was dissolved in tap water to give a final concentration of 0.5, 1.0, 1.5, or 2.0 as described in the following Table 6. α,α-Trehalose or α-maltosyl α,α-trehalose was dissolved in the resulting solutions to give a final concentration of 1 w/v %, on a dry solid basis. Absorbent cotton was allowed to absorb the resulting solution in an appropriate amount and placed in a plastic laboratory dish with a cover. Commercialized unpolished rice grains were placed on the cotton in the dish by 20 grains per group and kept at ambient temperature (25° C.) under a light-shaded condition by covering with a black cloth. As controls, an aqueous mineral solution without saccharides, and water without saccharides and minerals were prepared. […] Effective concentration of α,α-trehalose or α-maltosyl α,α-trehalose on expanding suitable region for biological activity of unpolished rice grains were determined by examining the number of germinated unpolished rice grains and germination time as an index in accordance with the method in Experiment 6 in the aqueous mineral solution with mineral concentration of 1.5 w/v %, where α,α-trehalose or α-maltosyl α,α-trehalose was effective in Experiment 6, containing α,α-trehalose or α-maltosyl α,α-trehalose in a concentration of 0.01, 0.1, 1, 2, 3, 4 or 6 w/v %, on a dry solid basis. As a control, water without saccharides or minerals was used.

[2] = tested on: gold fish (Japanese gold fish, Carassius auratus) with columnaris disease; test: Treatment for a disease of gold fish (columnaris disease); conditions: bred one week, each ingredient 1 (w/v)%
Method: One per group of gold fish (Japanese gold fish, Carassius auratus) with columnaris disease was bred in an aquarium filled with 2 L of aqueous solution containing 1 w/v % mineral and 1 w/v % α,α-trehalose or α-maltosyl α,α-trehalose at ambient temperature with normal feed for one week. Waters containing either of mineral, α,α-trehalose or α-maltosyl α,α-trehalose as references and water as a control were prepared to breed similarly as above. The fishes were macroscopically observed their activity and treatment effect.

SMILES: OC[C@H]1O[C@H](O[C@H]2O[C@H](CO)[C@@H](O[C@H]3O[C@H](CO)[C@@H](O[C@H]4O[C@H](CO)[C@@H](O)[C@H](O)[C@H]4O)[C@H](O)[C@H]3O)[C@H](O)[C@H]2O)[C@H](O)[C@@H](O)[C@@H]1O [α-Maltosyl α,α-trehalose, α-maltosyl α,α-trehalose]
- Judgment score of biological activity ([1]; Experiment 5, mineral 1.5 w/v %, saccharide 0.01 w/v %): 19
- Judgment score of biological activity ([1]; Experiment 5, mineral 1.5 w/v %, saccharide 0.1 w/v %): 35
- Judgment score of biological activity ([1]; Experiment 5, mineral 1.5 w/v %, saccharide 1 w/v %): 45
- Judgment score of biological activity ([1]; Experiment 5, mineral 1.5 w/v %, saccharide 2 w/v %): 41
- Judgment score of biological activity ([1]; Experiment 5, mineral 1.5 w/v %, saccharide 3 w/v %): 34
- Judgment score of biological activity ([1]; Experiment 5, mineral 1.5 w/v %, saccharide 4 w/v %): 21
- Judgment score of biological activity ([1]; mineral concentration 0, saccharide 1 w/v %, total of 18 shellfishes, 16 h): 54
- Judgment score of biological activity ([1]; mineral concentration 0.5, saccharide 1 w/v %, total of 18 shellfishes, 16 h): 53
- Judgment score of biological activity ([1]; mineral concentration 1.0, saccharide 1 w/v %, total of 18 shellfishes, 16 h): 45
- Judgment score of biological activity ([1]; mineral concentration 1.5, saccharide 1 w/v %, total of 18 shellfishes, 16 h): 44
- Judgment score of biological activity ([1]; mineral concentration 2.0, saccharide 1 w/v %, total of 18 shellfishes, 16 h): 37
- Judgment score of biological activity ([1]; mineral concentration 2.5, saccharide 1 w/v %, total of 18 shellfishes, 16 h): 24
- Judgment score of biological activity ([1]; mineral concentration 3.0, saccharide 1 w/v %, total of 18 shellfishes, 16 h): 4
- Germinated grains (Number) (unpolished rice; Experiment 7, mineral 1.5 w/v %, saccharide 0.01 w/v %, 48 hours): 0
- Germinated grains (Number) (unpolished rice; Experiment 7, mineral 1.5 w/v %, saccharide 0.01 w/v %, 72 hours): 2
- Germinated grains (Number) (unpolished rice; Experiment 7, mineral 1.5 w/v %, saccharide 0.01 w/v %, 96 hours): 2
- Germinated grains (Number) (unpolished rice; Experiment 7, mineral 1.5 w/v %, saccharide 0.01 w/v %, 120 hours): 2
- Germinated grains (Number) (unpolished rice; Experiment 7, mineral 1.5 w/v %, saccharide 0.1 w/v %, 48 hours): 0
- Germinated grains (Number) (unpolished rice; Experiment 7, mineral 1.5 w/v %, saccharide 0.1 w/v %, 72 hours): 2
- Germinated grains (Number) (unpolished rice; Experiment 7, mineral 1.5 w/v %, saccharide 0.1 w/v %, 96 hours): 4
- Germinated grains (Number) (unpolished rice; Experiment 7, mineral 1.5 w/v %, saccharide 0.1 w/v %, 120 hours): 5
- Germinated grains (Number) (unpolished rice; Experiment 7, mineral 1.5 w/v %, saccharide 1 w/v %, 48 hours): 1
- Germinated grains (Number) (unpolished rice; Experiment 7, mineral 1.5 w/v %, saccharide 1 w/v %, 72 hours): 3
- Germinated grains (Number) (unpolished rice; Experiment 7, mineral 1.5 w/v %, saccharide 1 w/v %, 96 hours): 5
- Germinated grains (Number) (unpolished rice; Experiment 7, mineral 1.5 w/v %, saccharide 1 w/v %, 120 hours): 5
- Germinated grains (Number) (unpolished rice; Experiment 7, mineral 1.5 w/v %, saccharide 2 w/v %, 48 hours): 1
- Germinated grains (Number) (unpolished rice; Experiment 7, mineral 1.5 w/v %, saccharide 2 w/v %, 72 hours): 6
- Germinated grains (Number) (unpolished rice; Experiment 7, mineral 1.5 w/v %, saccharide 2 w/v %, 96 hours): 6
- Germinated grains (Number) (unpolished rice; Experiment 7, mineral 1.5 w/v %, saccharide 2 w/v %, 120 hours): 6
- Germinated grains (Number) (unpolished rice; Experiment 7, mineral 1.5 w/v %, saccharide 3 w/v %, 48 hours): 1
- Germinated grains (Number) (unpolished rice; Experiment 7, mineral 1.5 w/v %, saccharide 3 w/v %, 72 hours): 4
- Germinated grains (Number) (unpolished rice; Experiment 7, mineral 1.5 w/v %, saccharide 3 w/v %, 96 hours): 5
- Germinated grains (Number) (unpolished rice; Experiment 7, mineral 1.5 w/v %, saccharide 3 w/v %, 120 hours): 5
- Germinated grains (Number) (unpolished rice; Experiment 7, mineral 1.5 w/v %, saccharide 4 w/v %, 48 hours): 0
- Germinated grains (Number) (unpolished rice; Experiment 7, mineral 1.5 w/v %, saccharide 4 w/v %, 72 hours): 3
- Germinated grains (Number) (unpolished rice; Experiment 7, mineral 1.5 w/v %, saccharide 4 w/v %, 96 hours): 3
- Germinated grains (Number) (unpolished rice; Experiment 7, mineral 1.5 w/v %, saccharide 4 w/v %, 120 hours): 3
- Germinated grains (Number) (unpolished rice; Experiment 7, mineral 1.5 w/v %, saccharide 6 w/v %, 48 hours): 0
- Germinated grains (Number) (unpolished rice; Experiment 7, mineral 1.5 w/v %, saccharide 6 w/v %, 72 hours): 0
- Germinated grains (Number) (unpolished rice; Experiment 7, mineral 1.5 w/v %, saccharide 6 w/v %, 96 hours): 1
- Germinated grains (Number) (unpolished rice; Experiment 7, mineral 1.5 w/v %, saccharide 6 w/v %, 120 hours): 1
- Germinated grains (Number) (unpolished rice; mineral 0.5 w/v %, saccharide 1 w/v %, 24 hours, 20 grains): 0
- Germinated grains (Number) (unpolished rice; mineral 0.5 w/v %, saccharide 1 w/v %, 48 hours, 20 grains): 15
- Germinated grains (Number) (unpolished rice; mineral 0.5 w/v %, saccharide 1 w/v %, 72 hours, 20 grains): 19
- Germinated grains (Number) (unpolished rice; mineral 0.5 w/v %, saccharide 1 w/v %, 96 hours, 20 grains): 20
- Germinated grains (Number) (unpolished rice; mineral 0.5 w/v %, saccharide 1 w/v %, 120 hours, 20 grains): 20
- Germinated grains (Number) (unpolished rice; mineral 1.0 w/v %, saccharide 1 w/v %, 24 hours, 20 grains): 0
- Germinated grains (Number) (unpolished rice; mineral 1.0 w/v %, saccharide 1 w/v %, 48 hours, 20 grains): 3
- Germinated grains (Number) (unpolished rice; mineral 1.0 w/v %, saccharide 1 w/v %, 72 hours, 20 grains): 10
- Germinated grains (Number) (unpolished rice; mineral 1.0 w/v %, saccharide 1 w/v %, 96 hours, 20 grains): 16
- Germinated grains (Number) (unpolished rice; mineral 1.0 w/v %, saccharide 1 w/v %, 120 hours, 20 grains): 16
- Germinated grains (Number) (unpolished rice; mineral 1.5 w/v %, saccharide 1 w/v %, 24 hours, 20 grains): 0
- Germinated grains (Number) (unpolished rice; mineral 1.5 w/v %, saccharide 1 w/v %, 48 hours, 20 grains): 1
- Germinated grains (Number) (unpolished rice; mineral 1.5 w/v %, saccharide 1 w/v %, 72 hours, 20 grains): 3
- Germinated grains (Number) (unpolished rice; mineral 1.5 w/v %, saccharide 1 w/v %, 96 hours, 20 grains): 5
- Germinated grains (Number) (unpolished rice; mineral 1.5 w/v %, saccharide 1 w/v %, 120 hours, 20 grains): 5
- Germinated grains (Number) (unpolished rice; mineral 2.0 w/v %, saccharide 1 w/v %, 24 hours, 20 grains): 0
- Germinated grains (Number) (unpolished rice; mineral 2.0 w/v %, saccharide 1 w/v %, 48 hours, 20 grains): 0
- Germinated grains (Number) (unpolished rice; mineral 2.0 w/v %, saccharide 1 w/v %, 72 hours, 20 grains): 0
- Germinated grains (Number) (unpolished rice; mineral 2.0 w/v %, saccharide 1 w/v %, 96 hours, 20 grains): 0
- Germinated grains (Number) (unpolished rice; mineral 2.0 w/v %, saccharide 1 w/v %, 120 hours, 20 grains): 0
- Treatment effect ([2]; columnaris disease): Bad
- Activity of gold fish ([2]; macroscopic observation): Good
